{"source": "patent US9655913B2", "about": "“Anti-esophageal cancer compound and method of use thereof” (Hong Kong Baptist University, priority 2015, dated 2017)", "key": {"KYSE-150 cells [1]": {"system": "KYSE-150 cells", "assay": "Tumor xenograft mouse model", "format": "in vivo, Balb/c nude mice", "details": "15 and 30 mg/kg/day intraperitoneal, 12 days, vs saline control", "procedure": "Six to eight-week-old female Balb/c nude weighing between 16-20 g were bred in 12 h day/night cycle environment with free access to food and water. 2×10^6 KYSE-150 cells per […] saline were injected subcutaneously into the flanks of the mice. When the tumor volume reached about 100 mm^3, the mice were randomly divided into three groups (n=5) as followed: (i) a control group: administered with saline; (ii) a low dosage group: administered with compound 1 at 15 mg/kg/day by intraperitoneal injection; (iii) a high dosage group, administered with compound 1 at 30 mg/kg/day by intraperitoneal injection. Tumor volumes were calculated with calipers every two days according to the formula: Volume=(width)^2×length/2. After 12 days observation, mice were killed to remove the tumor. Then the samples were fixed in 4% paraformaldehyde and embedded in paraffin. Five-micro-meter sections were stained with hematoxylin/eosin according to a standard procedure. The protocol was approved by the committee for Care of Laboratory Animals in the School of Chinese Medicine at the Hong Kong Baptist University."}, "KYSE-150 cells [2]": {"system": "KYSE-150 cells", "assay": "Wound healing assay", "format": "cell-based, human", "details": "KYSE-150, 50 μg/mL, after 72 hours, vs control", "procedure": "Cells were seeded in 12 wells plate at 30% confluence by scoring with a sterile plastic tip (1 mL), then washed several times with medium to remove cell debris and then incubated in the conditioned medium in the absence or presence of compound 1 at 50 μg/mL for various periods of time up to 72 hours. Cell migration into the wound surface was monitored by Olympus IX71 microscopy and digitally photographed.\nTo further examine the inhibitory effect of compound 1 on the migratory activity of cancer cell, a confluent monolayer of KYSE-150 cells was scratched to form a wound and incubated in the absence or presence of compound 1 (50 μg/mL) as compared to that of controls."}, "KYSE-450": {"system": "KYSE-450", "assay": "MTT cytotoxicity assay, KYSE-450", "format": "cell-based, Human", "details": "KYSE-450, highest concentration of 50 μg/mL, 48 hours", "procedure": "(§1) In this invention, compound 1 was dissolved in dimethyl sulfoxide (DMSO) to make stock solutions and further diluted in culture medium for this experiment. Human esophagus carcinoma cancer cell lines (KYSE-70, KYSE-150, KYSE-450 and KYSE-520) were cultured in RPMI 1640 or DMEM medium, containing 10% fetal bovine serum and 1% antibiotics (Penicillin and strep). The cell lines were cultured at 37° C. in a humidified environment containing 5% CO2. A standard colorimetric MTT assay was used to determine the cell viability. Cells were seeded in a 96-well plate (3×10^3 cells/well) and allowed to attach to the plate overnight. After the recovery, cells were treated with various concentrations of compound 1 or the crude extract (1.56, 3.125, 6.25, 12.5, 25, 50 μg/mL) for 48 hours. Then, 20 μL of MTT (5 mg/mL stock in PBS) per well was added into the medium (200 μL) and incubated for 4 hours at 37° C. Finally, the culture medium was removed and 200 μL of DMSO were added. Absorbance of the solution was measured using a microplate reader spectrophotometer (Bio-Rad Laboratories, Inc., Hercules, Calif.) at a wavelength of 570 nm."}, "KYSE-70": {"system": "KYSE-70", "assay": "MTT cytotoxicity assay, KYSE-70", "format": "cell-based, Human", "details": "KYSE-70, highest concentration of 50 μg/mL, 48 hours", "procedure": "as §1"}, "KYSE-520": {"system": "KYSE-520", "assay": "MTT cytotoxicity assay, KYSE-520", "format": "cell-based, Human", "details": "KYSE-520, highest concentration of 50 μg/mL, 48 hours", "procedure": "as §1"}, "KYSE-150": {"system": "KYSE-150", "assay": "MTT cytotoxicity assay, KYSE-150", "format": "cell-based, Human", "details": "KYSE-150, highest concentration of 50 μg/mL, 48 hours", "procedure": "as §1"}}, "note": "“Also recorded” adds a separate entry of the source.", "data": [{"smiles": "COc1cc(-c2oc3cc(O)cc(O)c3c(=O)c2OC2OC(COC3OC(C)C(O)C(O)C3O)C(O)C(O)C2O)ccc1O", "note": "(stereo not drawn) [compound 1]", "values": [{"measurement": "Body weight", "setting": "KYSE-150 cells [1]", "value": "significantly reduced"}, {"measurement": "H&E staining of tumor tissue", "setting": "KYSE-150 cells [1]", "value": "massive necrotizing tissue"}, {"measurement": "Tumor growth (tumor volume)", "setting": "KYSE-150 cells [1]", "value": "significantly reduced"}, {"measurement": "Tumor weight", "setting": "KYSE-150 cells [1]", "value": "significantly reduced tumor weight"}, {"measurement": "Cell migration", "setting": "KYSE-150 cells [2]", "value": "significantly inhibited the cell migration"}, {"measurement": "Cytotoxicity (cell viability)", "setting": "KYSE-450", "value": "no cytotoxicity was observed"}, {"measurement": "Cytotoxicity (cell viability)", "setting": "KYSE-70", "value": "no cytotoxicity was observed"}, {"measurement": "Cytotoxicity (cell viability)", "setting": "KYSE-520", "value": "no cytotoxicity was observed"}, {"measurement": "Cytotoxicity (cell viability)", "setting": "KYSE-150", "value": "cells viability was not altered; also recorded: no cytotoxicity was observed"}]}]}
